Numbers after ± are expanded uncertainties.
Settings: 101.33 kPa, Liquid, Vibrating tube method

mass density (298.15 K) [kg/m3]	mass density (323.15 K) [kg/m3]	mass density (348.15 K) [kg/m3]	mass density (363.15 K) [kg/m3]	SMILES
1012.35 ± 0.31	998.05 ± 0.3	983.99 ± 0.3	975.67 ± 0.3	CCCCCCCC[n+]1ccn(C)c1.[Cl-] [1-methyl-3-octylimidazolium chloride]
1081.59 ± 0.38	1067.28 ± 0.37	1053.35 ± 0.35	1045.06 ± 0.34	CCCCn1cc[n+](C)c1.[Cl-] [1-butyl-3-methylimidazolium chloride]

SMILES	mass density (298.15 K) [kg/m3]	mass density (323.15 K) [kg/m3]	mass density (348.15 K) [kg/m3]	mass density (363.15 K) [kg/m3]
CCCCCCn1cc[n+](C)c1.[Cl-] [1-hexyl-3-methylimidazolium chloride]	1040.92 ± 0.34	1026.73 ± 0.32	1012.81 ± 0.31	1004.49 ± 0.3

Reference: the NIST ThermoML archive (doi:10.1021/je3003783)
